Test results: WO2016087994A1, “Btk inhibitors to treat solid tumors through modulation of the tumor microenvironment” (dated 2016)
pEC50, pIC50: −log10 of the molar value. Entries after “also recorded” stand apart in the source; their conditions may differ. Like-named read-outs stand apart in the source and are kept apart here.

What was measured:
[1] = target: CYP3A4 (Homo sapiens, UniProt P08684); assay: CYP metabolism (loss of parent drug); type: in vitro ADME; conditions: in vitro
[2] = tested on: human platelet-mediated thrombosis; assay: In vivo human platelet thrombus formation after laser injury in VWF HA1 mice; parameters: species or system human platelets in VWF HA1 mice
[3] = In vivo metabolism in plasma, bile and urine; parameters: species or system rats, dogs, and monkeys; conditions: bile, urine, preliminary
[4] = tested on: primary CLL cells; assay: Rituximab ADCC, chromium release, primary CLL targets; type: cell-based, human; conditions: 1 μM; NK cells from CLL patients, autologous CLL cells
[5] = tested on: ID8 ovarian cancer; assay: ID8 syngeneic orthotopic ovarian cancer model; type: in vivo, mouse; conditions: 15 mg/kg/BID oral
[6] = Functional observation battery; type: in vivo, rats; conditions: doses through 300 mg/kg
[7] = tested on: CD4 + T cells; assay: Th17 and Treg development of CD4+ T cells; type: cell-based
[8] = tested on: CYP enzymes; assay: Nonclinical CYP interaction studies; type: in vitro ADME
[9] = target: T1, BTK (Mus musculus, UniProt P35991); assay: BTK occupancy in MDSCs of tumor bearing PDA mice; type: in vivo; conditions: 15 mg/kg BID, Day 8, 4 hours post dose, N=5
T1 construct: MDSCs were purified from tumor bearing PDA mice; from tissue; host or cells: granulocytic and monocytic MDSCs from tumor-bearing PDA mice

[10] = tested on: EGF receptor phosphorylation (p-EGFR), A431 cells; assay: In vitro EGFR phosphorylation in A431 cells; type: cell-based, human; conditions: 10 μM
[11] = target: A3 adenosine receptor (Homo sapiens, UniProt P0DMS8)
[12] = tested on: NK cells with rituximab-coated DHL4 lymphoma cells; assay: Rituximab-dependent NK cell degranulation (CD107a); type: cell-based, human
[13] = tested on: KPC pancreatic tumors (KRAS, p53); assay: KPC genetic pancreatic cancer model; type: in vivo, mouse
[14] = tested on: apoptotic B-CLL; assay: Apoptosis of B-CLL cells in treated CLL patients; type: in vivo, human
[15] = tested on: CD8 + T cells; assay: CD8+ T cell IFN-γ levels; type: cell-based; conditions: relative to vehicle
[16] = tested on: NK cells with trastuzumab-coated HER18 breast cancer cells; assay: Trastuzumab-dependent NK cell degranulation (CD107a); type: cell-based, human; conditions: trastuzumab-stimulated
[17] = tested on: hepatocytes; assay: Metabolism in hepatocytes with 14C-labeled Formula (II); type: in vitro ADME, mouse, rat, dog, rabbit, monkey, and human
[18] = target: T2, Itk kinase (Homo sapiens, UniProt Q08881); assay: Kinome screen, Itk; type: biochemical; conditions: see Table 2 (missing)
T2 construct: Life Technologies (performed the screen, or the value is from the literature)

[19] = Brain and CSF pharmacokinetics in Sprague-Dawley rats; type: in vivo; conditions: rat
[20] = tested on: GPVI platelet aggregation; assay: GPVI (convulxin-induced) human platelet aggregation; type: cell-based
[21] = tested on: KrasLA2 NSCLC tumors; assay: KrasLA2 genetic NSCLC model; type: in vivo, mouse
[22] = tested on: CD8 + T cells; assay: CD8+ T cell viability; type: cell-based; conditions: higher concentrations of ibrutinib; any concentration of Formula (II)
[23] = tested on: NK cells (CD56+/CD107a+) with MEC-1 cells; assay: Obinutuzumab-stimulated NK cell degranulation in whole blood; type: cell-based, human; conditions: obinutuzumab 1 μg/mL; 0.1, 1, 10 μM
[24] = tested on: KrasG12D;Trp53R172H;Pdx1-Cre (KPC) derived pancreatic tumor; assay: Orthotopic pancreatic cancer model (KPC-derived cell line); type: in vivo, C57BL/6 mice; conditions: oral 15 mg/kg
[25] = tested on: PBMC subsets (MDSC, NK cells); assay: Peripheral blood cell subsets in CLL patients by flow cytometry; type: in vivo, human; conditions: C1D28, C2D28
[26] = tested on: CD8 + T cells with B lymphoblast targets; assay: Cytotoxic T cell (CTL) assay; type: cell-based; conditions: 500 nM, relative to vehicle
[27] = tested on: relapsed/refractory CLL; assay: Clinical study of Formula (II) in relapsed/refractory CLL
[28] = tested on: CXCL12 and CCL2; assay: Plasma chemokines in treated CLL patients; type: in vivo, human
[29] = Respiratory function study; type: in vivo, rats; conditions: doses through 300 mg/kg
[30] = tested on: B cell receptor (CD69 on CD19+ B cells); assay: Inhibition of BCR signaling (CD69) on B cells in whole blood; type: cell-based; conditions: Homo sapiens, 18 h
[31] = tested on: NK cells with trastuzumab-coated HER18 breast cancer cells; assay: Trastuzumab-dependent NK cell IFN-γ secretion; type: cell-based, human; conditions: trastuzumab-stimulated
[32] = Cardiovascular function study in telemeterized dogs; type: in vivo, male beagle dogs; conditions: single doses through 30 mg/kg
[33] = tested on: KPC derived mouse pancreatic cancer cells; assay: KPC-derived mouse pancreatic cancer cells injected into pancreas, Formula (II) and/or gemcitabine; type: in vivo; conditions: Formula (II) 15 mg/kg/BID oral; gemcitabine 15 mg/kg IV every 4 days x3
[34] = tested on: rituximab-coated Raji cells; assay: Rituximab ADCC, chromium release, Raji targets; type: cell-based, human; conditions: 1 μM; healthy donor NK cells / Raji
[35] = Glutathione binding in vitro; type: in vitro ADME

Sequence of CYP3A4 (P08684 whole entry): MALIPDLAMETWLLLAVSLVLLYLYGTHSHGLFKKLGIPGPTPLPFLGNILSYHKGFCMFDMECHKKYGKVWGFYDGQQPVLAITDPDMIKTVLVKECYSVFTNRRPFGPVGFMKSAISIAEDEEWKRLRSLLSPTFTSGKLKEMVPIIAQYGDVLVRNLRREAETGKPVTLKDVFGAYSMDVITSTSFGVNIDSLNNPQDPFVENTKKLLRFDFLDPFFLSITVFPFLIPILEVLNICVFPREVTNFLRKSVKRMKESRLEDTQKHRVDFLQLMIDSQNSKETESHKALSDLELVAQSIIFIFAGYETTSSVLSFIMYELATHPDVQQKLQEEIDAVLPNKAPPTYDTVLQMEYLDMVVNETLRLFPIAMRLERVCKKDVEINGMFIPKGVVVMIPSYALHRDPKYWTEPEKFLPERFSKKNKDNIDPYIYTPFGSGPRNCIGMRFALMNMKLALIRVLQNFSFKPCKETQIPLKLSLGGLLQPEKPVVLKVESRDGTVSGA
T2 sequence (Q08881 whole entry): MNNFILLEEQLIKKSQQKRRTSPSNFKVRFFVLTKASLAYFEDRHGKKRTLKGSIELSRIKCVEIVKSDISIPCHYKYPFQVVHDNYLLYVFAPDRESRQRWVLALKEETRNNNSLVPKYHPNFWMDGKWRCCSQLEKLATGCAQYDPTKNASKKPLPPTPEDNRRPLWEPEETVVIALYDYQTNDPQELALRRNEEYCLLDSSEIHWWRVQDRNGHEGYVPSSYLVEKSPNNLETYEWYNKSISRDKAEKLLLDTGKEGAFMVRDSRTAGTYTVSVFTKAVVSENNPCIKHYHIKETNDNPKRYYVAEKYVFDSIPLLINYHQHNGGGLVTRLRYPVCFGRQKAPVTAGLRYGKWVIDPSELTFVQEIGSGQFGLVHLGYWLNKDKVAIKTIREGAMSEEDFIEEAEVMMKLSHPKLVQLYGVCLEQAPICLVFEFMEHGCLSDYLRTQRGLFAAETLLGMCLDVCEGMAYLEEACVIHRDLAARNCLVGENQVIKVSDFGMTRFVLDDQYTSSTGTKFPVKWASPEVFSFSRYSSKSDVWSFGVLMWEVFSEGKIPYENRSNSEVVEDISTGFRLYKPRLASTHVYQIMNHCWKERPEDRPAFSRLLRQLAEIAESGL
Sequence of A3 adenosine receptor (P0DMS8 whole entry): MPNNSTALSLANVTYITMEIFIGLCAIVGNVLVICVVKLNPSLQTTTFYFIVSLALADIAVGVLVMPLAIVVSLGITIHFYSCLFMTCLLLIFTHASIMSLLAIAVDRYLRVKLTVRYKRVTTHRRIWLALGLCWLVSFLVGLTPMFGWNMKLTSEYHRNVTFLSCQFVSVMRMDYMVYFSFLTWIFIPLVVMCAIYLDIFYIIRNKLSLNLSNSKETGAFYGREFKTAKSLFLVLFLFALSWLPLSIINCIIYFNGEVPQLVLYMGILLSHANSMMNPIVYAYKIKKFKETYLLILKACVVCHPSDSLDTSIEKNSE
T1 sequence (P35991 whole entry): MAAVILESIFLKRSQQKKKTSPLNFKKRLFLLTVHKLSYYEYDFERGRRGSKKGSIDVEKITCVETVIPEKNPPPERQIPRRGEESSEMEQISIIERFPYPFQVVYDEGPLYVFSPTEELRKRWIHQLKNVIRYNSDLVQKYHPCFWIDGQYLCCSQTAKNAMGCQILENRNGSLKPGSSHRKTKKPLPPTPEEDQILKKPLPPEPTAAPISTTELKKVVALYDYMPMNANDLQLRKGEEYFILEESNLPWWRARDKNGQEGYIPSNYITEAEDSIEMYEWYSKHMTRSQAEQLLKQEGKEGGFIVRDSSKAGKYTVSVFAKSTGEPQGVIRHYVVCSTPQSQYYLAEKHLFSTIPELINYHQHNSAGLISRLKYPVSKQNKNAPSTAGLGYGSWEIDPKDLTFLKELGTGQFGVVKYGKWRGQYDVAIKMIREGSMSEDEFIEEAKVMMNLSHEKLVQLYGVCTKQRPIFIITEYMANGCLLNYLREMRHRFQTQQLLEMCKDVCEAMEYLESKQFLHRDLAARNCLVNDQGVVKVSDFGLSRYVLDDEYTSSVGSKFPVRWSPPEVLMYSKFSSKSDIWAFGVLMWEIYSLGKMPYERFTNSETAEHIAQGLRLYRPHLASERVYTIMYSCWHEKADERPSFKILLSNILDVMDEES

For `CC#CC(=O)N1CCC[C@H]1c1nc(-c2ccc(C(=O)Nc3ccccn3)cc2)c2c(N)nccn12` [Formula (II), (<S)-4-(8-amino-3-(l-(but-2-ynoyl)pyrrolidin-2-yl)imidazo[l,5-a]pyrazin-l-yl)-N-(pyridin-2-yl)benzamide], the “CYP metabolism (in words)” value [1] was “metabolized by CYP3A4”, the “effect on thrombus formation (in words)” value [2] was “does not interfere with thrombus formation; also recorded: no significant effect on human platelet-mediated thrombus formation” and the “metabolic processes in vivo (in words)” value [3] was “oxidation, glutathione binding, and hydrolysis”. The “inhibition of rituximab ADCC (in words)” value [4] was “not inhibited”, the “B cells (in words)” value [5] was “significant reduction in total B cells; also recorded: significant reduction in immunosuppressive B cells” and the “B regulatory cells (Bregs) (in words)” value [5] was “significant reduction in B regulatory cells (Bregs)”. The “CD8+ T cells (in words)” value [5] was “increase in CD8 + T cells”, the “ID8 ovarian cancer growth (in words)” value [5] was “impairs ID8 ovarian cancer growth” and the “tumor associated Tregs (in words)” value [5] was “significant reduction in immunosuppressive tumor associated Tregs”. The “tumor-associated lymphocytes (in words)” value [5] was “significant reduction in immunosuppressive tumor-associated lymphocytes”, the “neurobehavioral effects / body temperature (in words)” value [6] was “no adverse effects on neurobehavioral effects or body temperature” and the “Th17 development (in words)” value [7] was “no adverse effects”. The “Treg development (in words)” value [7] was “no adverse effects”, the “CYP drug-drug interaction potential (in words)” value [8] was “very unlikely to cause clinical drug-drug interactions” and the “BTK occupancy in granulocytic and monocytic MDSC (in words)” value [9] was “Complete BTK occupancy”. The “inhibition of EGFR phosphorylation (in words)” value ([10]; A431) was “no inhibition”, the “EGF-induced p-EGFR inhibition” value ([10]; 2 h, EGF 100 ng/mL 5 min) was 7% and the “activity in 80-target binding screen (in words)” value [11] was “significant activity only against the A3 adenosine receptor”. For the same compound, the “reduction of NK cell degranulation” value ([12]; rituximab-stimulated, 240 min) was < 2%, the “NK cell degranulation (in words)” value ([12]; rituximab, Formula (II) 1 μM) was “did not inhibit” and the “survival at day 14” value ([13]; 15 mg/kg BID oral) was 6/6. The “survival at day 28” value ([13]; 15 mg/kg BID oral) was 5/6, the “tumor growth and survival (in words)” value ([13]; 15 mg/kg BID oral, combination with gemcitabine 50 mg/kg IV) was “substantially slowed pancreatic cancer growth and increased animal survival; also recorded: compared favorably with gemcitabine alone” and the “tumor volume, day 28, average” value ([13]; 15 mg/kg BID oral, predose 165) was 272 mm3. For the same compound, the “CD8+ cells (in words)” value ([13]; tumor tissue) was “significant increase in CD8 + cells”, the “MDSCs (Gr1+Ly6CHi) (in words)” value ([13]; tumor tissue) was “significantly reduced” and the “TAMs (CD11b+Ly6ClowF4/80+Csf1r+) (in words)” value ([13]; tumor tissue) was “significantly reduced”. For the same compound, the “Tregs (CD4+CD25+FoxP3+) (in words)” value ([13]; tumor tissue) was “significantly reduced”, the “samples with baseline change in apoptosis greater than 25%” value ([14]; cleaved PARP+, Caspase 3+, CD19+, CD5+) was 82 % of samples and the “apoptosis of B-CLL (in words)” value ([14]; human, in vivo) was “increased apoptotis”. The “CD8+ T cell function as IFN-γ level (in words)” value [15] was “no effect on CD8 + T cell function”, the “NK cell degranulation (in words)” value [16] was “no inhibitory effect” and the “metabolites in hepatocytes (in words)” value [17] was “two mono-oxidized metabolites and a glutathione conjugate; also recorded: No unique human metabolite was identified”. The “inhibition of Itk (in words)” value [18] was “not a potent inhibitor of Itk kinase”, the Kp at 0.5 h ([19]; brain, flushed brains, 5 or 30 mg/kg/day oral gavage, 30 min after dosing, read-out: brain concentration relative to matched plasma) was 0.03 to 0.04 and the Kp at 0.5 h ([19]; csf, 5 and 30 mg/kg/day oral gavage, read-out: CSF concentration relative to plasma) was 0.01 to 0.02. For the same compound, the “levels in brain and CSF (in words)” value ([19]; in vivo) was “crosses the blood-brain barrier; also recorded: low but detectable levels”, the “inhibition of GPVI platelet aggregation (in words)” value [20] was “does not” and the pIC50 ([20]; Homo sapiens, Platelet, read-out: IC50, GPVI platelet aggregation) was 5.94. The “number of tumors (in words)” value ([21]; 15 mg/kg) was “fewer overall tumors”, the “tumor volumes vs vehicle (in words)” value ([21]; 15 mg/kg) was “significant decrease in tumor volumes” and the “MDSCs (in words)” value ([21]; mouse, in vivo) was “significant reduction in immunosuppressive tumor associated MDSCs”. For the same compound, the “TAMs (in words)” value ([21]; mouse, in vivo) was “significant reduction in immunosuppressive tumor associated TAMs”, the “Tregs (in words)” value ([21]; mouse, in vivo) was “significant reduction in immunosuppressive tumor associated Tregs” and the “CD8+ T cell viability (in words)” value [22] was “not observed”. The “obinutuzumab-stimulated NK cell degranulation (in words)” value [23] was “minimal effect”, the “immature myeloid infiltrate (in words)” value [24] was “decreased immature myeloid infiltrate” and the “immunosuppressive tumor associated myeloid cells and Tregs (in words)” value [24] was “reduce immunosuppressive tumor associated myeloid cells and Tregs”. The “number of Tregs (in words)” value [24] was “reduced the number of immunospressive Tregs”, the “number of tumor associated macrophages (in words)” value [24] was “reduced the number of tumor associated macrophages” and the “tumor burden (in words)” value [24] was “significantly reduced tumor burden”. For the same compound, the “tumor volume (in words)” value ([24]; vs vehicle) was “statistically significant reductions in tumor volume”, the “MDSC (monocytic) change vs ALC (in words)” value [25] was “patients with decreasing ALC % had increasing MDSC (monocytic) %” and the “NK cell change vs ALC (in words)” value [25] was “patients with decreasing ALC % had increasing NK cell %”. For the same compound, the “CD8+ T cell function as % cytotoxicity (in words)” value [26] was “no effect on CD8 + T cell function”, the “time to same median % change in SPD” value ([27]; CLL, compared with ibrutinib) was 7 months and the “SPD change vs ibrutinib (in words)” value ([27]; FIG. 37) was “decreases more rapidly”. For the same compound, the “absolute lymphocyte count (ALC) change vs ibrutinib (in words)” value ([27]; FIG. 37) was “much smaller relative increase and much faster decrease in absolute lymphocyte count (ALC)”, the “adverse event grade (in words)” value ([27]; human, in vivo) was “only grade 1 AEs were observed” and the “disease progression in 17p deletion patients (in words)” value ([27]; human, in vivo) was “no 17p patients have progressed”. For the same compound, the “dose-limiting toxicities (in words)” value ([27]; human, in vivo) was “No DLTs were observed; also recorded: has not demonstrated any DLTs to date”, the “lymphocytosis (in words)” value ([27]; human, in vivo) was “A lack of lymphocytosis” and the “treatment-related serious adverse events (in words)” value ([27]; human, in vivo) was “No treatment-related serious adverse events (SAEs) were observed”. The “CCL2 levels (in words)” value [28] was “significant decrease”, the “CXCL12 levels (in words)” value [28] was “significant decrease” and the “respiratory function (in words)” value [29] was “no treatment-related adverse effects”. The pEC50 [30] was 8.09, the “NK cell cytokine release (in words)” value [31] was “no inhibitory effect” and the “cardiovascular/ECG/body temperature (in words)” value [32] was “no meaningful changes in body temperature, cardiovascular, or electrocardiographic (ECG) (including QT interval) parameters”. For the same compound, the “reduction in tumor size (in words)” value [33] was “efficacy alone”, the “inhibition of rituximab ADCC (in words)” value [34] was “not inhibited” and the “glutathione binding (in words)” value [35] was “binds to glutathione but does not deplete glutathione”.
